Laboratory results as given in a melting point compilation (Tetko et al.).

melting point	Compound
180 °C	CCOC(=O)C1=C(C)NC(=O)NC1c1ccccc1 (centres undefined)
31 °C	COc1cncc(Br)c1
122 °C	CN(C(=O)N(C)c1ccccc1)c1ccccc1
160 °C	CC(C=CC1(O)C(C)=CC(=O)CC1(C)C)=CC(=O)O (centres undefined)
90 to 91 °C	COc1ccccc1N1CCN(CC(C)N(C(=O)C2CCCCC2)c2ccccn2)CC1 (centres undefined)
42 to 46 °C	CCOC(=O)C1CCN(Cc2cccc(N)c2)CC1
141 to 142 °C	O=C(N[C@@H](C(=O)O)c1ccccc1)OCC(Cl)(Cl)Cl
123 °C	COc1cccc(C(=O)O)c1OC
133 to 138 °C	CS(=O)(=O)c1ccccc1S(=O)(=O)Cl
90 °C	Nc1cccc(Br)n1
280 °C	CC(C=Cc1ccc(C=CC(C)=NO)cc1)=NO
18 °C	CC=Cc1ccc(OC)c(OC)c1
133 °C	CCOC(=O)C1=NC2Sc3sc(C(=O)OCC)cc3C(c3ccccc3)C2=C1N (centres undefined)
88.5 °C	CN(C(=O)Cl)c1ccccc1
139 °C	CS(=O)(=O)c1ccccc1C(=O)O
43 °C	COc1cc(OC)cc(C(=O)Cl)c1
85 to 87 °C	C[Si](C)(C1C=Cc2ccccc21)C1C=Cc2ccccc21 (centres undefined)
127 to 129 °C	O=C(O)CSCCS(=O)(=O)c1ccc(Cl)cc1
121 °C	O=C(O)CC[C@H]1CC[C@H](CCC(=O)O)C1=O
114 to 116 °C	COc1ccc(OCC(N)=O)cc1
46 °C	Nc1ccccc1N1CCCCC1
50 to 52 °C	CC(O)CC(C)O (centres undefined)
38 °C	C=CCCCCCCCCCCCCCCCCCCCC

melting point	Compound
58 °C	Cc1ccc2c(c1)C(=O)CC2
181 °C	COc1ccc(C(=O)c2coc(S(N)(=O)=O)c2)cc1
191 to 193 °C	Nc1nc2ccccc2n1Cc1ccc(F)cc1
2.2 °C	CCOc1ccccc1[N+](=O)[O-]
184 to 187 °C	C=C(NC(C)=O)C(=O)O
130 to 134 °C	CSc1nc(N)cc(Cl)n1
275 °C	c1ccc(N=Nc2ccc(N=Nc3ccc(/N=N/c4ccc(N=Nc5ccccc5)cc4)cc3)cc2)cc1
72 to 74 °C	CC(=NO)c1ccc(F)cc1
132 °C	CC(=O)OCC(OC(C)=O)C(OC1OC(COC(C)=O)C(OC(C)=O)C(OC(C)=O)C1OC(C)=O)C(OC(C)=O)C(C#N)OC(C)=O (centres undefined)
42 to 44 °C	CCCCCc1ccc(S(=O)(=O)Cl)cc1
34 to 36 °C	O=[N+]([O-])c1cc(C(F)(F)F)ccc1N1CCOCC1
174 °C	c1ccc(-c2cc(N3CCCC3)cc(N3CCCC3)c2)cc1
150 to 153 °C	O=C(O)[C@@H]1CCCC[C@H]1C(=O)c1ccccc1 (relative stereo)
174 °C	CC(=O)c1ccc(NC(=O)C(C(F)(F)F)C(F)(F)F)cc1
36 to 38 °C	CCCCCCC(O)CO (centres undefined)
196 °C	CC12CCC(/C(=C3/OC(C4C(=O)C5(C)CCC4C5(C)C)C3=O)C1=O)C2(C)C (centres undefined)
115 to 117 °C	NNC(=O)Cc1ccccc1
303 to 304 °C	CCc1nc(N)nc(O)c1C
58 °C	COc1ccc(Nc2cccc(C(F)(F)F)c2)cc1
47 °C	Cc1ccc(C#N)cc1F
259 to 260 °C	CSc1nc2cc(N=Cc3ccc([N+](=O)[O-])cc3)ccc2[nH]1
3 °C	CCCCCCCCCCCCCC(=O)OC(C)C
107 °C	O=[N+]([O-])c1ccc(Cl)nc1

melting point	Compound
172 to 177 °C	O=C(N[C@@H](CSC(c1ccccc1)(c1ccccc1)c1ccccc1)C(=O)O)OCC1c2ccccc2-c2ccccc21
23 °C	CCCCCCCCCCC=CCCCCCCCC(=O)O
295 °C	COc1ccccc1/N=N/c1c(N)nn2c(C(F)(F)F)cc(=O)[nH]c12
56 °C	Cc1ccc(O)c(C=O)c1
247 to 249 °C	COc1nsc(Nc2ccc(Cl)cc2)n1
92 °C	O=C(O)c1c(C(F)(F)F)ccnc1F
115 °C	Cc1c(C(=O)Cl)cnn1-c1ccc(Cl)cc1
264 °C	CC(=O)Nc1ncc([N+](=O)[O-])s1
223 to 226 °C	O=C1C=CC(=O)c2cc3ccccc3cc21
220 to 225 °C	CC1=NN(c2ccc([N+](=O)[O-])cc2)C(=O)C1
81 to 82 °C	CCCCCCCCCCCCCC=CC(O)C(N)CO (centres undefined)
210 °C	Cc1nc(/C(C#N)=N/Nc2ccccc2[N+](=O)[O-])sc1/N=N/c1ccccc1
96 °C	NC(=O)c1cccc(C(F)(F)F)c1F
110 °C	O=C(O)c1c(F)cnc(F)c1F
195 to 197 °C	COc1ccc(C(=O)O)cc1C
212 °C	CCCCC(=O)OC1(C(=O)CO)CCC2C3CCC4=CC(=O)C=CC4(C)C3C(O)CC21C (centres undefined)
175 to 176 °C	CSC(S)=Nc1ccc(C)cc1
314 to 316 °C	C[C@H](N)C(=O)O
261 °C	CC12CCC(=O)C=C1CCC1C3CCC(O)(C(=O)CO)C3(C)CC(O)C12F (centres undefined)
99.5 °C	Brc1cc(Br)c(Br)c(Br)c1
118 °C	CC12CCC3C(CCC4CC=CCC43C)C1CC=C2CCc1ccccc1 (centres undefined)
210 °C	O=C(O)c1ccc(Cl)cc1O
146 °C	O=C(Nc1nccs1)C(F)(F)C(F)(F)C(F)(F)C(F)(F)C(F)(F)C(F)(F)C(F)(F)C(F)(F)F

melting point	Compound
206 °C	CC1CCC2(OC1)OC1CC3C4CC=C5CC(O)CCC5(C)C4CCC3(C)C1C2C (centres undefined)
143 °C	COC(=O)c1ccc(O)c(N)c1
107 °C	CCCCCCCCCCCCCCCC(N)=O
200 to 203 °C	O=C(O)CSc1ncccn1
160 °C	COC(=O)c1c(C)[nH]c(C)c1C=O
40 °C	CC(=O)c1ccccc1C(C)=O
82 to 84 °C	COc1cc(CCC(C)=NO)ccc1O
130 °C	Cc1cc(C(F)(F)F)cc(=O)[nH]1
255 to 260 °C	Oc1c(Br)c(Br)c(O)c(Br)c1Br
127 °C	OC1(C2(O)CCCCC2)CCCCC1
102 °C	CCCCC(C(N)=O)n1nc2ccccc2n1 (centres undefined)
256 to 258 °C	OCC1OC(OC2C(CO)OC(O)C(O)C2O)C(O)C(O)C1O (centres undefined)
178 to 179 °C	CSc1ncc(C(=O)O)n1Cc1ccccc1
263 °C	CC1C(=O)CCC2C1(C)CCC1C2(C)CCC2(C)C3CC(C)(C)CCC3(C)CCC12C (centres undefined)
161 to 165 °C	Sc1nnc(S)s1
270 °C	Cn1c(=O)c2[nH]cnc2n(C)c1=O
156 °C	CC12CCC(C(C(O)c3ccccc3)OC1=O)C2(C)C (centres undefined)
152 °C	Oc1ccc(F)nc1
112 °C	CC(C)(C)OC(=O)N[C@@H]1CC[C@H](C(=O)O)C1
-18.1 °C	CCCCCCCCOC(=O)CCCCCCC
39 to 43 °C	CC(C)(C)OC(=O)N1CCN(CCO)CC1
150 °C	CNc1ccc2cc3ccc(N(C)S(C)(=O)=O)cc3nc2c1CO
68 °C	N#Cc1ccc(F)c(C(F)(F)F)c1

melting point	Compound
-10 °C	CCCCC(CC)COC(=O)C=CC(=O)OCC(CC)CCCC (centres undefined)
62 °C	Cc1cc(Cl)c(N=C=O)cc1N=C=O
118 °C	CC(C)(C)OC(=O)N[C@@H](Cc1ccc(Br)cc1)C(=O)O
50 °C	CCOC(=O)C(CO)(CO)C(=O)OCC
137 to 139 °C	N#Cc1c(Cl)cccc1Oc1ccc(S(=O)(=O)Cl)cc1
70.5 °C	Clc1ccc(OCOc2ccc(Cl)cc2)cc1
152 to 154 °C	COc1cccc(OCc2ccccc2Cl)c1C#N
53 to 55 °C	CC(=O)C12CC3CC(CC(C3)C1)C2
287 to 289 °C	N#CC(C#N)=c1ccc(=C(C#N)C#N)cc1
85 °C	COc1cccc(N)c1C(=O)O
185 to 187 °C	COc1ccc(NC(=O)C(C(F)(F)F)C(F)(F)F)cc1
218 °C	CSc1nc(NS(=O)(=O)c2ccc(C)cc2)c(C#N)c(-c2ccc(Cl)cc2)c1Br
197 °C	CC1(C)CCC2(C)CCC3(C)C(=CCC4C5(C)CCC(O)C(C)(C)C5CCC43C)C2C1 (centres undefined)
254 °C	O=C(O)c1ccc(C(=O)O)nc1
86 to 87 °C	N#Cc1ccc(CN2CCOCC2)cc1
116 °C	Ic1cccc(I)c1I
275 °C	N=c1oc2ccccc2cc1-c1nc2ccccc2c(=O)[nH]1
119 to 120 °C	Cc1noc(N)c1C
41 to 44 °C	ClCc1ccc(OCc2ccccc2)c(OCc2ccccc2)c1
132 °C	CCOC(=O)C(C)C(=O)CC(O)CC1CC=C(C)C1(C)C (centres undefined)
93 °C	O=C(c1c(F)c(F)c(F)c(F)c1F)c1c(F)c(F)c(F)c(F)c1F
33 to 35 °C	FC(F)(F)c1cccc(Cl)n1

Compound	melting point
CCOP(=S)(OCC)Oc1cc(C)nc(N(CC)CC)n1	15 °C
N#CC(Br)c1ccccc1 (centres undefined)	29 °C
CN(C)P(=O)(N(C)C)N(C)C	7.2 °C
COc1cc2c(c(O)c1OC)CNCC2	188 °C
O=[N+]([O-])c1cnc(Cl)c([N+](=O)[O-])c1	63 to 66 °C
C#CC1(O)CCC2C3CC=C4CC(O)CCC4(C)C3CCC21C (centres undefined)	248 °C
Clc1cccc2c(Cl)cccc12	107 °C
Cc1ccccc1NN=C1C(=O)NC(=S)NC1=O	242 °C
ClCc1c(Cl)cccc1Cl	38 °C
CCCCCCCCCCC#N	-6 °C
C[C@]12CCC(=O)C(Br)[C@H]1CC[C@@H]1[C@@H]2CC[C@]2(C)C(O)CC[C@@H]12 (some centres undefined)	143 °C
CC(Cl)OC(=O)Cl (centres undefined)	-65 °C
O=C1OC(=O)c2c(Br)c(Br)c(Br)c(Br)c21	275 °C
CC1NC2CCCCCCCC(=O)OC3CCC(CCCCCCCC(=O)OC1CC2)NC3C (centres undefined)	121 °C
CCCCCCCCCCCC#N	4 °C
